Test results taken from patent US20130302445A1, “APPARATUS AND METHOD FOR TREATING CEREBRAL ISCHEMIA USING NON-INHALED CARBON DIOXIDE” (priority 2012, published 2013).

Experiments:
awake humans = test: Tolerability of intranasal CO2 delivery in awake humans; format: in vivo, human
From the text: While CO2 may be given to intubated, comatose individuals, the tolerability of intranasal gas delivery in awake humans has not previously been investigated. We have systematically tested the tolerability and effect of CO2 during intranasal delivery. CO2 elicits intense burning and stinging sensations which are intolerable above 16%. […] So individuals who are awake, such as stroke patients, these lower concentrations would be recommended. The current invention delivers CO2, or a combination of gases into the nasal or oral cavity but prevents its inhalation for the purposes of improving outcome from cerebral ischemia. […] In the embodiment with the anterior occlusion or “clip,” the CO2 could escape via a valve or exit tube or be suctioned out into a vacuumed container.

[1] = tested on: cerebral blood flow in rats; test: CO2 delivered into the lungs (systemic challenge); cerebral blood flow and arterial gases; format: in vivo; settings: rat, delivery into lungs
From the text: (§1) Referring now to FIG. 3, it can be seen that the increase in cbf is attributable to focal intranasal or intra-oral effect rather than to systemic absorption of CO2. […] At this very high concentration, sufficient CO2 must be absorbed focally, intracranially, into the cerebral circulation to appear in measurable amounts in the systemic circulation. It cannot be concluded, therefore, that the increase in cbf is caused by a purely local action of CO2 rather than being secondary to systemic absorption. […] The effect on cbf during intranasal or intra oral delivery of CO2 with concomitant air inhalation into the lungs is therefore a focal effect on intranasal and intracranial vasculature rather than secondary to systemic absorption.

[2] = tested on: cerebral blood flow in rats; test: Intranasal or intra-oral delivery of non-inhaled CO2 with air ventilation through a tracheostomy; cerebral blood flow and arterial gases; format: in vivo; settings: rat
From the text: When CO2 s inhaled through the nose or mouth into the pulmonary circulation, it passes into the systemic blood stream through the alveoli. Once it reaches the brain, it diffuses out into the csf to exert its effect. As more CO2 is inhaled into the lungs and absorbed into the systemic circulation, arterial CO2 concentration (PaCO2) rises, hydrogen ions are produced and arterial pH falls, creating an acidosis. Acidosis leads to narcosis, and ultimately coma and death. Less severe signs of CO2 inhalation in non-intubated patients include headaches, sweating and hyperventilation. […] Inhalation is prevented by ventilating the animal through a tracheostomy with air while delivering the experimental gas intranasally (or intra orally).
The increase is the same with 100% and with 50% gas concentration. […] Decline following discontinuation is somewhat slower than rise during delivery.
as §1

intubated patients = settings: hypercarbia from reduced ventilation rate; cited from earlier work
[3] = 50% CO2 intranasal, air into lungs

In the case of O=C=O [CO2, carbon dioxide], the “CO2 concentration above which burning and stinging sensations are intolerable” value (awake humans) is reported as “above 16%”, the “tolerability of sensations at 16% CO2 or below” value (awake humans; 16% or below, sensations abate over a few minutes) is reported as “quite tolerable” and the “arterial CO2 concentration when CO2 is delivered into the lungs” value [1] is reported as “rapidly increases”. For the same compound, the “arterial pH when CO2 is delivered into the lungs” value [1] was “falls”, the “cbf when CO2 is delivered into the lungs” value [1] was “increases sharply” and the “arterial pH, intranasal CO2 concentration 50%” value [2, 3] was “without any detectable increase in systemic PaCO2 or fall of pH”. For the same compound, the “cbf, intranasal CO2 concentration 50%” value [2, 3] was “doubles”, the “systemic PaCO2, intranasal CO2 concentration 50%” value [2, 3] was “without any detectable increase” and the “cbf, 100% CO2 delivered intranasally” value ([2]; 100% CO2 intranasal) was “also increases”. For the same compound, the “systemic CO2, 100% CO2 delivered intranasally, compared with lung delivery” value ([2]; 100% CO2 intranasal) was “far less increase”, the “onset of cbf increase after start of delivery” value ([2]; intranasal or intra-oral, non-inhaled) was “within seconds” and the “cbf during intranasal or intra-oral delivery of CO2” value ([2]; non-inhaled, increase the same with 100% and 50% gas concentration) was “more than doubled”. The “increase in cbf per mm Hg increase in arterial CO2 over 45 mm” value (intubated patients) was 4%.
